Here are results for 5 compounds from US11578074B2, “Nitrogenous heterocyclic compound, preparation method, intermediate, composition, and application” (SHANGHAI PHARMACEUTICALS HOLDING CO., LTD., priority 2017, dated 2023).

Data set [1] deals with HER2 overexpressing human gastric cancer NCI-N87 nude mice xenograft. Nature of the data set: HER2 overexpressing human gastric cancer NCI-N87 nude mice xenograft model. In kind it is in vivo. To be noted: 10 mg/kg, continuous oral administration for 21 days. The text has this: We have established nude mice xenograft model for HER2 overexpression.
(In general: Xenograft models place foreign cells or tissue in a host animal.)

Data set [2] has as its target T1, CYP3A4 (Homo sapiens, UniProt P08684).
T1 construct: A system of 100 μL human liver microsomes; from tissue; host or cells: human liver microsomes
As to the kind of experiment: Direct inhibition (DI) of CYP3A4 in human liver microsomes. Type of data set: in vitro ADME. To be noted: human liver microsomes 0.2 mg/mL, 10 μM compound. Summed up: (§1)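 Pooled human liver microsomes (0.2 mg/mL) with 1 mM NADPH and 10 μM test compound were incubated for 20 min with a mixed probe-substrate cocktail (midazolam 10 μM, testosterone 100 μM, dextromethorphan 10 μM, diclofenac 20 μM, phenacetin 100 μM, mephenytoin 100 μM). Relative enzyme activity came from metabolite formation versus DMSO control.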
(Microsomes from liver hold many membrane-bound enzymes, among them those of drug oxidation.)

For data set [3], the target named is T2, CYP2D6 (Homo sapiens, UniProt P10635).
T2 construct: A system of 100 μL human liver microsomes; from tissue; host or cells: human liver microsomes
T2 sequence (P10635 whole entry): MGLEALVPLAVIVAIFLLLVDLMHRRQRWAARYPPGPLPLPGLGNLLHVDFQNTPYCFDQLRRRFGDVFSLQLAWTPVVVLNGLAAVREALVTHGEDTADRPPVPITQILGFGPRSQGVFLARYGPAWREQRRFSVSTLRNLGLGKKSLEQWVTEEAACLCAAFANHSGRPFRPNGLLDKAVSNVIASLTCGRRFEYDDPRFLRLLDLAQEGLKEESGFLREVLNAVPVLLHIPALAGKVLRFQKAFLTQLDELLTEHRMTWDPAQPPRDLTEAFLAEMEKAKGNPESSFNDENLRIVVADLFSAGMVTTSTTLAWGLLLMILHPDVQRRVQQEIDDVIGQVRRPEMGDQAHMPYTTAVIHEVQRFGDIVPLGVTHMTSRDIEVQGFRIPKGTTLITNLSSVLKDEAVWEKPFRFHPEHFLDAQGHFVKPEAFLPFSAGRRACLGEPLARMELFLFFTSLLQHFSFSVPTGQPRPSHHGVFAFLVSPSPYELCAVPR
As to the kind of experiment: Direct inhibition (DI) of CYP2D6 in human liver microsomes. In kind it is in vitro ADME. To be noted: probe Dextromethorphan, human liver microsomes 0.2 mg/mL, 10 μM compound, read-out: Direct inhibition (DI) 2D6 (Dextromethorphan). The procedure, abridged: as §1

Data set [4] has as its target T3, CYP2C9 (Homo sapiens, UniProt P11712).
T3 construct: A system of 100 μL human liver microsomes; from tissue; host or cells: human liver microsomes
As to the kind of experiment: Direct inhibition (DI) of CYP2C9 in human liver microsomes. Type of data set: in vitro ADME. The settings on record: probe Diclofenac, human liver microsomes 0.2 mg/mL, 10 μM compound, read-out: Direct inhibition (DI) 2C9 (Diclofenac). The procedure, abridged:
as §1

Data set [5] concerns the target T4, CYP1A2 (Homo sapiens, UniProt P05177).
T4 construct: A system of 100 μL human liver microsomes; from tissue; host or cells: human liver microsomes
T4 sequence (P05177 1-516): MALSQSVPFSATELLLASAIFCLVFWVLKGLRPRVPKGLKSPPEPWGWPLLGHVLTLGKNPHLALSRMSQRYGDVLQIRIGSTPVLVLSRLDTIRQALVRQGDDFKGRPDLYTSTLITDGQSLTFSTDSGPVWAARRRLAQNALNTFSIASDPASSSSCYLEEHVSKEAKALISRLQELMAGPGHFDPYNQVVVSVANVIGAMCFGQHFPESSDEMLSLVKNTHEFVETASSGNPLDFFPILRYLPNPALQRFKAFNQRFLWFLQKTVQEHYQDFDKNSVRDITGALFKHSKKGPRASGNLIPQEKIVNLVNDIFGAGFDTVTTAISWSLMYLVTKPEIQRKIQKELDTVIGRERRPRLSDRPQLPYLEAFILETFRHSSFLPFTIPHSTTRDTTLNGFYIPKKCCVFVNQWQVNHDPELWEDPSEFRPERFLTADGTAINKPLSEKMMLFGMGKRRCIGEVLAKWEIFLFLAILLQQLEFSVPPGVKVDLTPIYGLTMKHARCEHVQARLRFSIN
As to the kind of experiment: Direct inhibition (DI) of CYP1A2 in human liver microsomes. Type of data set: in vitro ADME. The settings on record: probe Phenacetin, human liver microsomes 0.2 mg/mL, 10 μM compound, read-out: Direct inhibition (DI) 1A2 (Phenacetin). Summed up:
as §1

Data set [6] deals with T5, CYP2C19 (Homo sapiens, UniProt P33261).
T5 construct: A system of 100 μL human liver microsomes; from tissue; host or cells: human liver microsomes
T5 sequence (P33261 whole entry): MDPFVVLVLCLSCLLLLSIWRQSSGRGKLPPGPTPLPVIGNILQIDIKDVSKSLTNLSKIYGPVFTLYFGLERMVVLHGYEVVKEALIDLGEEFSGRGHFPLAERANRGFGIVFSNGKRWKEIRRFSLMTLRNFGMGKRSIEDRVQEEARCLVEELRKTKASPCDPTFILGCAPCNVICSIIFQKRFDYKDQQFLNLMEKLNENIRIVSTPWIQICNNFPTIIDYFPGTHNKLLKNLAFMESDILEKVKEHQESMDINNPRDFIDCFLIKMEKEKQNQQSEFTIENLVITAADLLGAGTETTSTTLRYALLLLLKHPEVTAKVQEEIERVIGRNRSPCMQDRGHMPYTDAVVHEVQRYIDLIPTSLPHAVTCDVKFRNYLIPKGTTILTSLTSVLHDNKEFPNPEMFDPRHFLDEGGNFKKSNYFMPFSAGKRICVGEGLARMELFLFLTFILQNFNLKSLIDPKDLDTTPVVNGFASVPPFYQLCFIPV
Nature of the data set: Direct inhibition (DI) of CYP2C19 in human liver microsomes. In kind it is in vitro ADME. To be noted: probe Mephenytoin, human liver microsomes 0.2 mg/mL, 10 μM compound, read-out: Direct inhibition (DI) 2C19 (Mephenytoin). Summed up: as §1

Data set [7] in a line: In vivo pharmacokinetics study in beagle dogs. To be noted: beagle dogs, oral 15 mg/kg. The procedure: 6 male beagle dogs (purchased from Beijing Marshall Biotechnology Co., Ltd., certificate No. SCXK (Beijing) 2016-0001) were divided into 2 groups with 3 dogs in each group, and all of the animals were fasted for about 12 hours before administration. One group was orally administrated with 15 mg/kg of the final product of Embodiment 22 (deionized water was added, followed by sonication for 29 minutes and stirring for 4 minutes, and a clear pale yellow dosing solution with a concentration of 3 mg/mL was prepared); the other group was orally administrated with 15 mg/kg of Pyrotinib (deionized water was added, followed by sonication for 28 minutes and stirring for 5 minutes, and a clear yellow dosing solution with a concentration of 3 mg/mL was prepared). Blood samples were collected before administration and at 15, 30, 60, 90, 120, 150, 180, 240, 360, 480, 720 and 1440 minutes respectively after administration.
(§2) 1.0 mL of blood was collected from each animal through jugular vein puncture at each time point and heparin sodium was used for anticoagulation. The blood samples were collected and placed in labeled centrifuge tubes, and plasma was centrifuged (centrifugation conditions: 3500 rpm, 10 minutes, 2-8° C.). To 50 μL of plasma sample was added 300 μL of acetonitrile containing internal standard (Propranolol, 25 ng/mL) to precipitate the protain. After vortexing for 10 minutes and centrifuging at 6000 g for 20 minutes, 100 μL of supernatant was taken and injected into a 96-well plate. The drug concentration in plasma was determined by UPLC/MS-MS.

Data set [8] can be described thus: In vivo pharmacokinetics study in cynomolgus monkeys. To be noted: cynomolgus monkeys, oral 15 mg/kg. As to the method:
6 male cynomolgus monkeys (purchased from Guangxi Guidong Primate Development Experiment Co., Ltd., certificate No. SCXK (Guangxi) 2013-0057) were divided into 2 groups with 3 in each group, and all of the animals were fasted for about 12 hours before administration. One group was orally administrated with 15 mg/kg of the final product of Embodiment 22 (deionized water was added, followed by sonication for 30 minutes and stirring for 3 minutes, and a clear pale yellow dosing solution with a concentration of 3 mg/mL was prepared); one group was administrated with 15 mg/kg of Pyrotinib (deionized water was added, followed by sonication for 30 minutes and stirring for 4 minutes, and a clear yellow dosing solution with a concentration of 3 mg/mL was prepared). Blood samples were collected before administration and at 15, 30, 60, 90, 120, 150, 180, 240, 360, 480, 720 and 1440 minutes respectively after administration.
as §2

Data set [9] concerns the target T6, ErbB2 kinase (Homo sapiens, UniProt P04626).
T6 construct: The final concentration of ErbB2 kinase was 0.06 ng/μL
Nature of the data set: EGFR/ErbB2 enzymatic experiment (HTRF kinEASE-TK), ErbB2. Type of data set: biochemical. The settings on record: ErbB2 kinase 0.06 ng/μL, ATP 4 μM; read-out: Kinase IC50 (nM) in vitro ErbB2. On the technique in general: TR-FRET usually uses a lanthanide donor and a delayed reading to cut background.

The target in data set [10] is EGFR kinase (Homo sapiens, UniProt P00533). As to the kind of experiment: EGFR/ErbB2 enzymatic experiment (HTRF kinEASE-TK), EGFR. In kind it is biochemical. The settings on record: EGFR kinase 0.06 units/μL, ATP 1.65 μM; read-out: Kinase IC50 (nM) in vitro EGFR.
EGFR kinase, sequence (P00533 25-1210): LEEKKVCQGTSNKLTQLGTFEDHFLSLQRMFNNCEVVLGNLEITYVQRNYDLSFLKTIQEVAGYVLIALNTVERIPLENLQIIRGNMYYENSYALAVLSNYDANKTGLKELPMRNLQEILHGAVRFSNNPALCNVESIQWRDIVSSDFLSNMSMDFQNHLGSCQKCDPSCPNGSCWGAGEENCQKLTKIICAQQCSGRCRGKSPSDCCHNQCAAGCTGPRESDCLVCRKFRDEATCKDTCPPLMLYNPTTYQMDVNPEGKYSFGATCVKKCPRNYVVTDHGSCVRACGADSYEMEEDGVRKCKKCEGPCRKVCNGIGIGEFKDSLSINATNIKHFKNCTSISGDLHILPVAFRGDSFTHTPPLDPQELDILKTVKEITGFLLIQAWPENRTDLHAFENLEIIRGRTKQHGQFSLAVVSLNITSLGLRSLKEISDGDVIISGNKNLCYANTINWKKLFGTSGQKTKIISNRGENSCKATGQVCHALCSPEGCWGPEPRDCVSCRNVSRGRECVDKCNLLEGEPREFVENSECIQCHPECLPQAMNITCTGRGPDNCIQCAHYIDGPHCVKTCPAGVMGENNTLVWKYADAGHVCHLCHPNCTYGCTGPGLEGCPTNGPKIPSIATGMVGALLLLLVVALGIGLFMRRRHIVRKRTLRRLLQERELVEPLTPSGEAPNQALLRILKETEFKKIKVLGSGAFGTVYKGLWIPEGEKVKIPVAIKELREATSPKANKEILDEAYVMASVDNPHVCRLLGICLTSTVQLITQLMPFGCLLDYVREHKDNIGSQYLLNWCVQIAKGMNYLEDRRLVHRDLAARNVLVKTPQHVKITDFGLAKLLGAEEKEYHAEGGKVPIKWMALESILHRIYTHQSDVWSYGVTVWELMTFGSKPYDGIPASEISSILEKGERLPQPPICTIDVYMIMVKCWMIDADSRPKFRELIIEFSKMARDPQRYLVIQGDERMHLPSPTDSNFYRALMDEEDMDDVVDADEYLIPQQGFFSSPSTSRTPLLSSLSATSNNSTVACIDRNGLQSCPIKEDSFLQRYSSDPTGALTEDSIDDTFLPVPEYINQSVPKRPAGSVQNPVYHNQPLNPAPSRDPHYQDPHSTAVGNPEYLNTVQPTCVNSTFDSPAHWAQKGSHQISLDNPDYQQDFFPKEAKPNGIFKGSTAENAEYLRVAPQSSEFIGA
Data set [11] deals with N87 (human gastric cancer cell NCI-N87). As to the kind of experiment: In vitro proliferation inhibition assay of cell lines (CellTiter-Glo), N87. In kind it is cell-based. The settings on record: N87 cells, 72 hours. The procedure, abridged: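 Cells seeded overnight (BT-474 8.8×10^4 cells/mL, N87 6.6×10^4 cells/mL), then exposed to 9 compound concentrations in duplicate for 72 hours at 37° C, 5% CO2. Viability read by CellTiter-Glo luminescence.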

Data set [12] deals with BT-474 (human breast cancer cell). Nature of the data set: In vitro proliferation inhibition assay of cell lines (CellTiter-Glo), BT-474. Type of data set: cell-based. To be noted: BT-474 cells, 72 hours. Summed up:
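Cells were exposed to nine compound concentrations in duplicate for 72 h at 37 °C and 5% CO2. Viability was read with CellTiter-Glo reagent after equilibration at room temperature.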

Setting [13] is: probe Midazolam, read-out: Direct inhibition (DI) 3A4 (Midazolam).
The mark [14] stands for this setting: probe Testosterone, read-out: Direct inhibition (DI) 3A4 (testosterone).

The structures appear in SMILES notation. Read-outs that look alike come from different tables or passages of the source.

Usually inhibition stands for the drop in the measured response relative to a control, in per cent. A word on the AUC: it is the area under the concentration-time curve, a measure of exposure. A word on the IC50: it is the concentration at which inhibition is half-maximal.

T3 sequence (P11712 whole entry): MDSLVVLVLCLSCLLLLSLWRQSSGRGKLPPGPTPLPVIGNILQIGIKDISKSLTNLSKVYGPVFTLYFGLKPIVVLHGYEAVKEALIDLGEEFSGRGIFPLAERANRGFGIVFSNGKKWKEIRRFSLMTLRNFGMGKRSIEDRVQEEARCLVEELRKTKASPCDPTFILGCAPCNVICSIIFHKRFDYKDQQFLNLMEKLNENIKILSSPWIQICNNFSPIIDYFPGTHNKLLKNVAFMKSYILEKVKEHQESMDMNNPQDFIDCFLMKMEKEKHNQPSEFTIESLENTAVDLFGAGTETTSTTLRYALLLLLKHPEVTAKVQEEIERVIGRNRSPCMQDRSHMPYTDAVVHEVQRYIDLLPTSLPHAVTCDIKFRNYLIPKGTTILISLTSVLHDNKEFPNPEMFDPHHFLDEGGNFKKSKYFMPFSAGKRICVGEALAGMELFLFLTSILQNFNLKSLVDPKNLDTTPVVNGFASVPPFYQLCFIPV
T6 sequence (P04626 23-1255): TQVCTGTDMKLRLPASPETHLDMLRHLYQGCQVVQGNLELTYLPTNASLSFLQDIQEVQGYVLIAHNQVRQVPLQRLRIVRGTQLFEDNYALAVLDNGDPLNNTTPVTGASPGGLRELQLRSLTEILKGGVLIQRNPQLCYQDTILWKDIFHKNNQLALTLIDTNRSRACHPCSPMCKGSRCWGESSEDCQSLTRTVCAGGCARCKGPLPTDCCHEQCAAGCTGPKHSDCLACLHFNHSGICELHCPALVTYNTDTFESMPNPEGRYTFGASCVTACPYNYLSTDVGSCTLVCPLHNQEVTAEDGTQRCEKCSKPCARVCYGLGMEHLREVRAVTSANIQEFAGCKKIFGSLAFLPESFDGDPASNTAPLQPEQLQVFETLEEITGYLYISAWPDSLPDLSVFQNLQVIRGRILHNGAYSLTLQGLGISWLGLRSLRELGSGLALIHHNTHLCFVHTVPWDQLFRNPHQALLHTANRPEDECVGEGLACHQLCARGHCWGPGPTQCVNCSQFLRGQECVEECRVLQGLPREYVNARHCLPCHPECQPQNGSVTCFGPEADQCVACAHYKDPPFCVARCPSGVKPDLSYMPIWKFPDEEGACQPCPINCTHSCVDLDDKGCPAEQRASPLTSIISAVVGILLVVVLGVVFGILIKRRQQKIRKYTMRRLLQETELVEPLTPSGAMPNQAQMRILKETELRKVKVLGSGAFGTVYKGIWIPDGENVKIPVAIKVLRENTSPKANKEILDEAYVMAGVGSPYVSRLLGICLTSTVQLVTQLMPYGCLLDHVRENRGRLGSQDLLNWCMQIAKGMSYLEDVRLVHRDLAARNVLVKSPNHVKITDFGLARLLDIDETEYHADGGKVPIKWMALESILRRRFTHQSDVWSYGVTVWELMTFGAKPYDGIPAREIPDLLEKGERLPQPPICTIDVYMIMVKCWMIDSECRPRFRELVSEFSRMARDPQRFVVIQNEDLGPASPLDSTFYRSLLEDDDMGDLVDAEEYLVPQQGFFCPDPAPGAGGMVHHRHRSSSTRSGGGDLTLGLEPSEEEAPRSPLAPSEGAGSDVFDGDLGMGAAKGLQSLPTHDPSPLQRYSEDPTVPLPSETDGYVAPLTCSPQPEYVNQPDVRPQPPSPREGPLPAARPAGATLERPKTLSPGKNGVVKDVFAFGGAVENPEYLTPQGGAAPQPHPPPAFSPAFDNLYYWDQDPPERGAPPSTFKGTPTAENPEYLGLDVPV
T1 sequence (P08684 whole entry): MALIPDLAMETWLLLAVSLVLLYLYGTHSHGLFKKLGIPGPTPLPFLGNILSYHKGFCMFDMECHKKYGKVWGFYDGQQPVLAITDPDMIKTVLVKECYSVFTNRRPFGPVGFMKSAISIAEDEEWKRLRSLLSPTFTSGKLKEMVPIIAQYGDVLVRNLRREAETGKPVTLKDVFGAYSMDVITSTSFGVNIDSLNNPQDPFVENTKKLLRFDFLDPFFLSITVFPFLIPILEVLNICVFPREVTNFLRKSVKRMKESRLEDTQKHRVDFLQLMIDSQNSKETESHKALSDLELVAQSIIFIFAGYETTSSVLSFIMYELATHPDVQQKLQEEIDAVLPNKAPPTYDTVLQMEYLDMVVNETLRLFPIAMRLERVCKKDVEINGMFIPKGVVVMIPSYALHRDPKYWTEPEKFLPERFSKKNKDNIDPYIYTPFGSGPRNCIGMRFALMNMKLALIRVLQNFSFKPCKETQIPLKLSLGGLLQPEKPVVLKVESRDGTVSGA

Take `CCOc1cc2ncc(C#N)c(Nc3ccc(OCc4ccccn4)c(Cl)c3)c2cc1NC(=O)/C=C/CN(C)C` [Neratinib, reference compound]: in data set [1], the “tumor volume inhibition rate (GI %)” value is listed as 112.5%.

Consider `CCOc1cc2ncc(C#N)c(Nc3ccc(OCc4ccccn4)c(Cl)c3)c2cc1NC(=O)/C=C/[C@H]1CCCN1C` [Pyrotinib, reference compound], for which the inhibition at 20 min, 10 µM in data set [2] (setting [13]) was 15%; in [2] (setting [14]) it was 22%; in [3], 55%; in data set [4] it was 26%; in [5], 22%; in data set [6] it was 43%. In addition, the “peak oral absorption concentration” value in data set [7] worked out at 146.2 ng/mL. The AUC in data set [7] (male, dog, plasma, read-out: AUC) was found to be 1620 ng·h/mL; in data set [8] (male, cynomolgus monkey, plasma, read-out: AUC), 325 ng·h/mL. In addition, the “oral absorption peak concentration” value in data set [8] stood at 56.42 ng/mL. Besides, the “tumor volume inhibition rate (GI %)” value in data set [1] is on record as 127.0%.

As to `Cc1cc(Nc2ncnc3ccc(NC(=O)/C=C/[C@H]4CCCN4C)cc23)ccc1Oc1cc2nccn2cn1` [Final product of Embodiment 41], the half-inhibitory concentration (IC50) in data set [9] turned out to be 0.6 nM; in [10] it was 0.6 nM; in data set [11], 8.5 nM; in data set [12], 3.9 nM. The inhibition at 20 min, 10 µM in data set [2] (setting [13]) is less than 0%; in [2] (setting [14]), 6%; in data set [3] it was 71%; in data set [4], less than 0%; in data set [5] it was less than 0%; in [6] it was 1%.

Take `Cc1cc(Nc2ncnc3ccc(NC(=O)/C=C/[C@H]4CCCN4C)cc23)ccc1Oc1ccn2ncnc2c1` [Final product of Embodiment 20, (R,E)-N-(4-((4-([1,2,4]triazolo[1,5-a]pyridin-7-yloxy)-3-methylphenyl)amino)quinazolin-6-yl)-3-(1-methylpyrrolidin-2-yl)acrylamide]: the IC50 was 0.584 nM in [9], 3.93 nM in data set [10], 2.07 nM in data set [11] and 3.23 nM in data set [12]. For the same compound, the inhibition at 20 min, 10 µM was 0% in data set [2] (setting [13]); 14% in data set [2] (setting [14]); 61% in data set [3]; less than 0% in [4]; 6% in data set [5]; 7% in data set [6].

For the compound `CCOc1cc2ncnc(Nc3ccc(Oc4cc5nncn5cn4)c(C)c3)c2cc1NC(=O)/C=C/[C@H]1CCCN1C` [Final product of Embodiment 18, (R,E)-N-(4-((4-([1,2,4]triazolo[4,3-c]pyrimidin-7-yloxy)-3-methylphenyl)amino)-7-ethoxyquinazolin-6-yl)-3-(1-methylpyrrolidin-2-yl)acrylamide], the IC50 was 0.513 nM in data set [9], 0.358 nM in [10], 1.58 nM in [11] and 2.1 nM in data set [12]. Moreover, the inhibition at 20 min, 10 µM in data set [2] (setting [13]) was 12%; in data set [2] (setting [14]), 23%; in data set [3] it was 4%; in [4], 4%; in data set [5], 5%; in data set [6], 8%.
